Patent publication US6153604A, “Therapeutic substituted guanidines” (Cambridge NeuroScience, Inc., priority 1995, dated 2000)
pIC50: −log10 of the molar value. Where a name gives a salt, the structure may show the parent alone.

Columns and labels:
sigma receptor = assay: Sigma receptor binding assay ([3H]DTG, guinea pig brain membrane homogenates); conditions: displacement of [3H]DTG, guinea pig brain membranes
Method: Sigma Receptor Binding Assay
Briefly, frozen whole guinea-pig brains (Biotrol, Indianapolis, Ind.) were homogenized in 10 volumes (w/v) of ice-cold 320 mM sucrose using a Brinkman polytron. The homogenate was centrifuged at 1,000×g for 20 minutes at 4° C. The supernatant was centrifuged at 20,000×g for 20 minutes at 4° C. The resulting pellet was resuspended in 10 initial volumes of 50 mM Tris/HCl buffer at pH 7.4 and centrifuged at 20,000×g for 20 minutes at 4° C. The resulting pellet was resuspended in 5 initial volumes ice-cold 50 mM Tris/HCl (pH 7.4), and the final volume was adjusted to yield a protein concentration of 3 mg/ml. Aliquots of 20-ml were stored at -70° C. until used, with no detectable loss of binding.
The protein concentration in the 1-ml final incubation volume was 800 μg/ml, corresponding to 32 mg of brain tissue (original wet weight) and to a tissue concentration within the linear range for specific binding. […] Incubations were terminated after 90 minutes at room temperature by addition of 4 ml of ice-cold 50 mM Tris/HCl (pH 7.4) and rapid filtration of the membrane suspension through Whatman GF/B glass-fiber filters under vacuum, using a 48-well cell harvester (Brandel). The filters were washed 2 times with 4 ml of 50 mM Tris/HCl (pH 7.4). […] IC50 values were determined by non-linear regression analysis.

PCP receptor = PCP receptor radioligand binding assay ([3H]MK-801, rat brain membranes); conditions: read-out: [3H-MK801] IC50; displacement of [3H]MK-801, rat brain membranes

Row | Structure (SMILES) | pIC50 (sigma receptor) | pIC50 (PCP receptor)
1 | CCc1cccc(NC(=N)Nc2cccc(Cl)c2)c1 [Compd. No. 3 (Table I)] | 7.81 | 6.84
2 | CCc1cccc(NC(=N)Nc2cc(C(F)(F)F)ccc2Br)c1 [Compd. No. 4 (Table I), N-(3-Ethylphenyl)-N'-(2-bromo-5-trifluoromethylphenyl)guanidine hydrochloride] | 7.99 | 7.06
3 | CCc1cccc(NC(=N)Nc2cc(C(F)(F)F)ccc2Cl)c1 [Compd. No. 6 (Table I), N-(3-Ethylphenyl)-N'-(2-chloro-5-trifluoromethylphenyl)guanidine hydrochloride] | 7.85 | 7.24
4 | CCc1cccc(NC(=N)Nc2cc(C)ccc2Cl)c1 [Compd. No. 7 (Table I), N-(3-Ethylphenyl)-N'-(2-chloro-5-methylphenyl)guanidine hydrochloride] | 7.51 | 7.00
5 | CCc1cccc(NC(=N)Nc2cc(CC)ccc2Cl)c1 [Compd. No. 8 (Table I), N-(3-Ethylphenyl)-N'-(2-chloro-5-ethylphenyl)guanidine hydrochloride] | 8.69 | 7.34
6 | CCc1cccc(NC(=N)Nc2cccc(CC)c2)c1 [Compd. No. 9 (Table I)] | 8.10 | 6.77
7 | CCc1cccc(N(C)C(=N)Nc2cc(Cl)ccc2Cl)c1 [Compd. No. 10 (Table I), N-(3-ethylphenyl)-N-methyl-N'-(2,5-dichlorophenyl)guanidine hydrochloride] | 7.55 | 7.07
8 | CCc1cccc(N(C)C(=N)Nc2cc(Br)ccc2Br)c1 [Compd. No. 11 (Table I), N-(3-ethylphenyl)-N-methyl-N'-(2,5-dibromophenyl)guanidine hydrochloride] | 7.40 | 7.32
9 | CCc1cccc(N(C)C(=N)Nc2cccc(Cl)c2)c1 [Compd. No. 12 (Table I)] | 7.36 | 6.19
10 | CCc1cccc(N(C)C(=N)Nc2cc(C(F)(F)F)ccc2Br)c1 [Compd. No. 13 (Table I), N-(3-Ethylphenyl)-N-methyl-N'-(2-bromo-5-trifluoromethylphenyl)guanidine hydrochloride] | 6.68 | 6.99
11 | CCc1cccc(N(C)C(=N)Nc2cc(C(F)(F)F)ccc2F)c1 [Compd. No. 14 (Table I), N-(3-Ethylphenyl)-N-methyl-N'-(2-fluoro-5-trifluoromethylphenyl)guanidine hydrochloride] | 7.07 | 6.60
12 | CCc1cccc(N(C)C(=N)Nc2cc(C(F)(F)F)ccc2Cl)c1 [Compd. No. 15 (Table I), N-(3-Ethylphenyl)-N-methyl-N'-(2-chloro-5-trifluoromethylphenyl)guanidine hydrochloride] | 6.92 | 6.88
13 | CCc1cccc(N(C)C(=N)Nc2cc(CC)ccc2Cl)c1 [Compd. No. 17 (Table I), N-(3-Ethylphenyl)-N-methyl-N'-(2-chloro-5-ethylphenyl)guanidine hydrochloride] | 6.94 | 7.28
14 | CCc1cccc(N(C)C(=N)Nc2cccc(Br)c2)c1 [Compd. No. 19 (Table I)] | 7.40 | 6.98
15 | CCc1cccc(N(C)C(=N)Nc2cc(CC)ccc2F)c1 [Compd. No. 20 (Table I), N-(3-Ethylphenyl)-N-methyl-N'-(2-fluoro-5-ethylphenyl)guanidine hydrochloride] | 6.95 | 6.90
16 | CCc1cccc(NC(=N)Nc2cc(CC)ccc2F)c1 [Compd. No. 21 (Table I), N-(3-Ethylphenyl)-N'-(2-fluoro-5-ethylphenyl)guanidine hydrochloride] | 8.13 | 7.19
17 | CCc1cccc(N(C)C(=N)Nc2cc(CC)ccc2Br)c1 [Compd. No. 22 (Table I), N-(3-Ethylphenyl)-N-methyl-N'-(2-bromo-5-ethylphenyl)guanidine hydrochloride] | 6.69 | 7.78
18 | CCc1cccc(NC(=N)Nc2cc(CC)ccc2Br)c1 [Compd. No. 23 (Table I), N-(3-Ethylphenyl)-N'-(2-bromo-5-ethylphenyl)guanidine hydrochloride] | 8.29 | 7.42
19 | CCc1cccc(N(C)C(=N)Nc2cc(SC)ccc2Cl)c1 [Compd. No. 24 (Table I), N-13-Ethylphenyl)-N-methyl-N'-(2-chloro-5-methylthiophenyl)guanidine hydrochloride] | 6.51 | 8.17
20 | CCc1cccc(NC(=N)Nc2cc(SC)ccc2Cl)c1 [Compd. No. 25 (Table I), N-(3-Ethylphenyl)-N'-(2-chloro-5-methylthiophenyl)guanidine hydrochloride] | 7.80 | 7.81
21 | CCc1cccc(N(C)C(=N)N(C)c2cc(Cl)ccc2Cl)c1 [Compd. No. 26 (Table I), N-(3-Ethylphenyl)-N-methyl-N'-(2,5-dichlorophenyl)-N'-methylguanidine hydrochloride] |  | 7.03

Row | Structure (SMILES) | pIC50 (sigma receptor) | pIC50 (PCP receptor)
22 | CCc1cccc(N(C)C(=N)N(C)c2cc(Br)ccc2Br)c1 [Compd. No. 27 (Table I), N-(3-Ethylphenyl)-N-methyl-N'-(2,5-dibromophenyl)-N'-methylguanidine hydrochloride] | 6.42 | 7.45
23 | CCc1cccc(N(C)C(=N)N(C)c2cc(CC)ccc2Cl)c1 [Compd. No. 28 (Table I), N-(3-Ethylphenyl)-N-methyl-N'-(2-chloro-5-ethylphenyl)-N'-methylguanidine hydrochloride] |  | 6.84
24 | CCc1ccc(Cl)c(NC(=N)Nc2cc(C)ccc2Cl)c1 [Compd. No. 29 (Table I)] | 7.44 | 7.26
25 | N=C(Nc1cc(Cl)ccc1Cl)Nc1cccc2ccccc12 [Compd. No. 31 (Table I), N-(1-naphthyl)-N'-(2,5-dichlorophenyl)guanidine] | 7.60 | 7.39
26 | N=C(Nc1cc(Br)ccc1Br)Nc1cccc2ccccc12 [Compd. No. 32 (Table I), N-(1-Naphthyl)-N'-(2,5-dibromophenyl)guanidine hydrochloride] | 7.42 | 7.31
27 | Cc1ccc(C)c(NC(=N)Nc2cccc3ccccc23)c1 [Compd. No. 33 (Table I), N-(1-Naphthyl)-N'-(2,5-dimethylphenyl)guanidine hydrochloride] | 7.56 | 7.10
28 | Cc1cccc(NC(=N)Nc2cccc3ccccc23)c1 [Compd. No. 38 (Table I)] | 7.12 | 6.72
29 | N=C(Nc1cc(C(F)(F)F)ccc1F)Nc1cccc2ccccc12 [Compd. No. 39 (Table I), N-(1-Naphthyl)-N'-(2-fluoro-5-trifluoromethylphenyl)guanidine hydrochloride] | 7.10 | 7.42
30 | N=C(Nc1cc(C(F)(F)F)ccc1Cl)Nc1cccc2ccccc12 [Compd. No. 40 (Table I), N-(1-Naphthyl)-N'-(2-chloro-5-trifluoromethylphenyl)guanidine hydrochloride] | 7.28 | 7.41
31 | CN(C(=N)Nc1cccc2ccccc12)c1cccc(Br)c1 [Compd. No. 53 (Table I)] |  | 7.27
32 | CSc1cccc(N(C)C(=N)Nc2cc(SC)ccc2Br)c1 [Compd. No. 63 (Table I), N-(3-Methylthiophenyl)-N-methyl-N'-(2-bromo-5-methylthiophenyl)guanidine] |  | 8.67
33 | CCc1ccc(Br)c(NC(=N)N(C)c2cccc(SC)c2)c1 [Compd. No. 64 (Table I), N-(3-Methylthiophenyl)-N-methyl-N'-(2-bromo-5-ethylphenyl)guanidine hydrochloride] | 6.74 | 
34 | CSc1cccc(N(C)C(=N)Nc2cc(Br)ccc2Br)c1 [Compd. No. 65 (Table I), N-(3-Methylthiophenyl)-N-methyl-N'-(2,5-dibromophenyl)guanidine hydrochloride] |  | 8.27
35 | CN(C(=N)Nc1cc(Cl)ccc1Cl)c1cccc(C(F)(F)F)c1 [Compd. No. 68 (Table I), N-(3-Trifluoromethylphenyl)-N-methyl-N'-(2,5-dichlorophenyl)guanidine hydrochloride] | 6.96 | 
36 | CSc1ccc(Cl)c(NC(=N)N(C)c2cccc(Br)c2)c1 [Compd. No. 72 (Table I), N-(3-Bromophenyl)-N-methyl-N'-(2-chloro-5-methylthiophenyl)guanidine hydrochloride] |  | 8.33
37 | CN(C(=N)Nc1cc(Br)ccc1Br)c1cccc(OC(F)(F)F)c1 [Compd. No. 73 (Table I), N-(3-Trifluoromethoxyphenyl)-N'-(2,5-dibromophenyl)-N-methylguanidine hydrochloride] |  | 7.59
38 | CCc1ccc(Br)c(NC(=N)N(C)c2cccc(OC(F)(F)F)c2)c1 [Compound 74] |  | 7.80
39 | CN(C(=N)Nc1cc(Br)ccc1Br)c1cccc(S(C)(=O)=O)c1 [Compound 75] |  | 6.28
40 | CN(C(=N)Nc1cc(Br)ccc1Br)c1cccc([S+](C)[O-])c1 (stereo not shown) [Compound 76] |  | 6.49
41 | CSc1ccc(Cl)c(NC(=N)N(C)c2cccc(I)c2)c1 [Compound 77] |  | 8.68
42 | CCc1ccc(Cl)c(NC(=N)Nc2cccc(I)c2)c1 [Compound 78] |  | 7.86
